Data published in the supplement of paper PMC11208160.
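Further: IS621 recombinase and bridge RNA in Escherichia coli cells.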

Test: recombinant barcode read abundance after kanamycin selection (control-corrected) (log10(CPM+1)); higher = more efficient recombination; sequences stand for … in AGTGCAGAGAAAATCGGCCAGTTTTCTCTGCCTGCAGTCCGCATGCCGT…AGATTTATGCAGCGGACTGCCTTTCTCCCAAAGTGATAAACCGGACAGTATCATGGACCGGTTTTCCCGGTAATCCGTATTTGCAAGGTTGGTTTCACT; site = the 11-nt target
How it was run: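 This pooled E. coli screen matched targets with IS621 bridge RNA target-binding loops. Plating was done in duplicate on chloramphenicol/ampicillin LB agar as a control and on chloramphenicol/ampicillin/kanamycin plus 0.1 mM IPTG. Recombination efficiency reflects barcode counts at recombinant junctions as counts per million, averaged and control-corrected. The figures are log10(CPM+1).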
In the case of “GAGAGGTCTTGGGTTCTAACCTGTTGCAT (site GAGAGGTCTAC)”, the “recombinant barcode read abundance (log10)” value is reported as 0.435.
In the case of “GAGAGGTCTTGGGTTCTAACCTGTTGCAT (site GAGAGGTCTAG)”, the “recombinant barcode read abundance (log10)” value is reported as 0.458.
For “GAGAGGTCTTGGGTTCTAACCTGTTGCAT (site GAGAGGTCTAT)”, the “recombinant barcode read abundance (log10)” value was 1.82.
For “GAGAGGTCTTGGGTTCTAACCTGTTGCTT (site GAGAGGTCTAA)”, the “recombinant barcode read abundance (log10)” value was 1.79.
For “GAGAGGTCTTGGGTTCTAACCTGTTGCTT (site GAGAGGTCTAC)”, the “recombinant barcode read abundance (log10)” value was 0.202.
In the case of “GAGAGGTCTTGGGTTCTAACCTGTTGCTT (site GAGAGGTCTAG)”, the “recombinant barcode read abundance (log10)” value is reported as 0.893.
With “GAGAGGTCTTGGGTTCTAACCTGTTGCTT (site GAGAGGTCTAT)” the “recombinant barcode read abundance (log10)” value was 1.46.
For “GAGCAACCTTGGGTTCTAACCTGTTGCTT (site ATAAGCTCTCG)”, the “recombinant barcode read abundance (log10)” value was 0.25.
With “GAGCAACCTTGGGTTCTAACCTGTTGCTT (site GAGCAACCTAA)” the “recombinant barcode read abundance (log10)” value was 0.0979.
With “GAGCAGGCTTGGGTTCTAACCTGTTGCTT (site AGTTCTCCTCG)” the “recombinant barcode read abundance (log10)” value was 0.196.
For “GAGCAGGCTTGGGTTCTAACCTGTTGCTT (site GAGCAGGCTAA)”, the “recombinant barcode read abundance (log10)” value was 0.661.
With “GAGCCATCTTGGGTTCTAACCTGTTGCTT (site GAGCCATCTAA)” the “recombinant barcode read abundance (log10)” value was 0.524.
With “GAGCCATCTTGGGTTCTAACCTGTTGCTT (site GAGTCGTCTAA)” the “recombinant barcode read abundance (log10)” value was 0.261.
For “GAGCGCTCTTGGGTTCTAACCTGTTGCCG (site GAGCGCTCTCG)”, the “recombinant barcode read abundance (log10)” value was 0.754.
For “GAGCGCTCTTGGGTTCTAACCTGTTGCCG (site GAGCGTTCTAG)”, the “recombinant barcode read abundance (log10)” value was 0.269.
With “GAGGACTCTTGGGTTCTAACCTGTTGCCA (site GAGGACTCTAG)” the “recombinant barcode read abundance (log10)” value was 1.46.
For “GAGGACTCTTGGGTTCTAACCTGTTGCCA (site GAGGACTCTCG)”, the “recombinant barcode read abundance (log10)” value was 0.263.
With “GAGGACTCTTGGGTTCTAACCTGTTGCCA (site GAGGACTCTGG)” the “recombinant barcode read abundance (log10)” value was 0.824.
For “GAGGACTCTTGGGTTCTAACCTGTTGCCA (site GAGGACTCTTG)”, the “recombinant barcode read abundance (log10)” value was 2.27.
For “GAGGCTTCTTGGGTTCTAACCTGTTGCCT (site GAGGCTTCTAG)”, the “recombinant barcode read abundance (log10)” value was 0.42.
With “GAGGCTTCTTGGGTTCTAACCTGTTGCCT (site GCGGCTTCTAG)” the “recombinant barcode read abundance (log10)” value was 0.435.
In the case of “GAGGCTTCTTGGGTTCTAACCTGTTGCCT (site GGGGCTTCTAG)”, the “recombinant barcode read abundance (log10)” value is reported as 0.184.
For “GAGGCTTCTTGGGTTCTAACCTGTTGCCT (site GTGGCTTCTAG)”, the “recombinant barcode read abundance (log10)” value was 0.515.
For “GAGGGAGCTTGGGTTCTAACCTGTTGCAT (site GAGAGAGCTAT)”, the “recombinant barcode read abundance (log10)” value was 1.33.
For “GAGGGAGCTTGGGTTCTAACCTGTTGCAT (site GAGCGAGCTAT)”, the “recombinant barcode read abundance (log10)” value was 0.171.
For “GAGGGAGCTTGGGTTCTAACCTGTTGCAT (site GAGGGAGCTAT)”, the “recombinant barcode read abundance (log10)” value was 2.43.
For “GAGGGAGCTTGGGTTCTAACCTGTTGCAT (site GAGTGAGCTAT)”, the “recombinant barcode read abundance (log10)” value was 0.315.
With “GAGGGGACTTGGGTTCTAACCTGTTGCAG (site GAGGGGACTCT)” the “recombinant barcode read abundance (log10)” value was 2.76.
With “GAGGGGACTTGGGTTCTAACCTGTTGCAG (site TCCTTCTCTAG)” the “recombinant barcode read abundance (log10)” value was 0.307.
With “GAGGTATCTTGGGTTCTAACCTGTTGCGT (site GAGGTATCTAC)” the “recombinant barcode read abundance (log10)” value was 0.252.
In the case of “GAGGTATCTTGGGTTCTAACCTGTTGCGT (site GAGGTATCTTG)”, the “recombinant barcode read abundance (log10)” value is reported as 0.303.
With “GAGGTATCTTGGGTTCTAACCTGTTGCTT (site GAGGTATCTAA)” the “recombinant barcode read abundance (log10)” value was 0.35.
For “GAGGTATCTTGGGTTCTAACCTGTTGCTT (site GAGGTATCTTA)”, the “recombinant barcode read abundance (log10)” value was 0.0893.
With “GAGGTCACTTGGGTTCTAACCTGTTGCTA (site GAGGTCACTTA)” the “recombinant barcode read abundance (log10)” value was 2.26.
In the case of “GAGGTCACTTGGGTTCTAACCTGTTGCTA (site TCTCCTCCTAT)”, the “recombinant barcode read abundance (log10)” value is reported as 0.186.
In the case of “GAGGTCCCTTGGGTTCTAACCTGTTGCGG (site CTCCCTGCTAG)”, the “recombinant barcode read abundance (log10)” value is reported as 0.2.
In the case of “GAGGTCCCTTGGGTTCTAACCTGTTGCGG (site GAGGTCCCTCC)”, the “recombinant barcode read abundance (log10)” value is reported as 2.93.
In the case of “GAGTACACTTGGGTTCTAACCTGTTGCGC (site AGCGCGCCTCA)”, the “recombinant barcode read abundance (log10)” value is reported as 0.0967.
For “GAGTACACTTGGGTTCTAACCTGTTGCGC (site GAGTACACTGC)”, the “recombinant barcode read abundance (log10)” value was 2.53.
With “GAGTACCCTTGGGTTCTAACCTGTTGCCT (site GAGTACCCTAG)” the “recombinant barcode read abundance (log10)” value was 1.96.
For “GAGTACCCTTGGGTTCTAACCTGTTGCCT (site GCGTACCCTAG)”, the “recombinant barcode read abundance (log10)” value was 0.162.
In the case of “GAGTACCCTTGGGTTCTAACCTGTTGCCT (site GGGTACCCTAG)”, the “recombinant barcode read abundance (log10)” value is reported as 0.619.
With “GAGTACCCTTGGGTTCTAACCTGTTGCCT (site GTGTACCCTAG)” the “recombinant barcode read abundance (log10)” value was 0.0322.
In the case of “GAGTAGACTTGGGTTCTAACCTGTTGCTT (site GAGTAGACTAA)”, the “recombinant barcode read abundance (log10)” value is reported as 1.64.
For “GAGTAGACTTGGGTTCTAACCTGTTGCTT (site GAGTAGTCTAA)”, the “recombinant barcode read abundance (log10)” value was 1.22.
In the case of “GAGTATGCTTGGGTTCTAACCTGTTGCCT (site GAGTATGCTAG)”, the “recombinant barcode read abundance (log10)” value is reported as 1.72.
For “GAGTATGCTTGGGTTCTAACCTGTTGCCT (site GATTATGCTAG)”, the “recombinant barcode read abundance (log10)” value was 0.223.
In the case of “GAGTATTCTTGGGTTCTAACCTGTTGCCT (site GAATATTCTAG)”, the “recombinant barcode read abundance (log10)” value is reported as 1.2.
In the case of “GAGTATTCTTGGGTTCTAACCTGTTGCCT (site GACTATTCTAG)”, the “recombinant barcode read abundance (log10)” value is reported as 0.0264.
In the case of “GAGTATTCTTGGGTTCTAACCTGTTGCCT (site GAGTATTCTAG)”, the “recombinant barcode read abundance (log10)” value is reported as 1.16.
In the case of “GAGTATTCTTGGGTTCTAACCTGTTGCCT (site GATTATTCTAG)”, the “recombinant barcode read abundance (log10)” value is reported as 0.123.
For “GAGTCGTCTTGGGTTCTAACCTGTTGCCT (site GAGTCGCCTAG)”, the “recombinant barcode read abundance (log10)” value was 0.193.
In the case of “GAGTCGTCTTGGGTTCTAACCTGTTGCCT (site GAGTCGTCTAG)”, the “recombinant barcode read abundance (log10)” value is reported as 1.78.
For “GAGTCTACTTGGGTTCTAACCTGTTGCCA (site CCTATAGCTAA)”, the “recombinant barcode read abundance (log10)” value was 0.0951.
In the case of “GAGTCTACTTGGGTTCTAACCTGTTGCCA (site GAGTCTACTTG)”, the “recombinant barcode read abundance (log10)” value is reported as 0.317.
For “GAGTCTACTTGGGTTCTAACCTGTTGCCG (site GAGTCTACTCG)”, the “recombinant barcode read abundance (log10)” value was 0.562.
For “GAGTCTACTTGGGTTCTAACCTGTTGCCG (site GAGTCTACTCT)”, the “recombinant barcode read abundance (log10)” value was 0.0936.
In the case of “GAGTTAACTTGGGTTCTAACCTGTTGCCG (site GAGTTAACTCG)”, the “recombinant barcode read abundance (log10)” value is reported as 0.262.
In the case of “GAGTTAACTTGGGTTCTAACCTGTTGCCG (site GTGTGAACTCG)”, the “recombinant barcode read abundance (log10)” value is reported as 0.0546.
